Assay results published in ChEMBL document CHEMBL1201862, “PubChem BioAssay data set” (2004).
The source made the active and inactive calls.

Legend:
[1] = target: T1, Oxysterols receptor LXR-beta (Homo sapiens, UniProt P55055); assay: LXR agonists, Gal4 luciferase reporter, dose response, counter-screen for ssDAF-12 agonist project, cell-based, luminescence, HEK293, S. stercoralis campaign (AID 720737); type: functional; conditions: read-out: IC50 (the source's name)
T1 sequence (P55055 whole entry): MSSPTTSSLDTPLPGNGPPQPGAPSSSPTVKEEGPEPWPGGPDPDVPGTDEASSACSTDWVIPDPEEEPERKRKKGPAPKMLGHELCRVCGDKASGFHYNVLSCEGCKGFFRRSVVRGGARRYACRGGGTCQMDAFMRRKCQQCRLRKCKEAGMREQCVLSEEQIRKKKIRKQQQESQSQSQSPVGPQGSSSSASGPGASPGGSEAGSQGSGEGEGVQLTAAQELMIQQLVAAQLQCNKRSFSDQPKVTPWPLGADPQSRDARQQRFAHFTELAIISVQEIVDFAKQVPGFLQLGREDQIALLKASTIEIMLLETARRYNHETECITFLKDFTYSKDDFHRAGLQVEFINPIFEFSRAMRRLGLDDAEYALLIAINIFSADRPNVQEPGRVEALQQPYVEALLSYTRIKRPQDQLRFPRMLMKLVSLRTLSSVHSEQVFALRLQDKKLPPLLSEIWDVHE

[2] = Luminescence-based cell-based high throughput dose response assay to identify activators of the DAF-12 from the parasite S. stercoralis (ssDAF-12).; type: functional
[3] = viability loss in THP-1 monocytes – THP-1 cells, cytotoxicity control for Vif-APOBEC3G degradation inhibitor project, dose response (AID 1117359); type: functional; conditions: THP-1
[4] = general mammalian cell viability loss – activator set, cherry-pick, cytotoxicity control for miR-122 modulator project, dose response (AID 720690); type: functional, cell-based;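 note: HEK293T human cells scored for general mammalian cytotoxicity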
[5] = target: Voltage-dependent T-type calcium channel subunit alpha-1H (Homo sapiens, UniProt O95180); type: functional;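 note: channel activity triggered by adding a high calcium stimulation buffer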
Sequence of Voltage-dependent T-type calcium channel subunit alpha-1H (O95180 whole entry): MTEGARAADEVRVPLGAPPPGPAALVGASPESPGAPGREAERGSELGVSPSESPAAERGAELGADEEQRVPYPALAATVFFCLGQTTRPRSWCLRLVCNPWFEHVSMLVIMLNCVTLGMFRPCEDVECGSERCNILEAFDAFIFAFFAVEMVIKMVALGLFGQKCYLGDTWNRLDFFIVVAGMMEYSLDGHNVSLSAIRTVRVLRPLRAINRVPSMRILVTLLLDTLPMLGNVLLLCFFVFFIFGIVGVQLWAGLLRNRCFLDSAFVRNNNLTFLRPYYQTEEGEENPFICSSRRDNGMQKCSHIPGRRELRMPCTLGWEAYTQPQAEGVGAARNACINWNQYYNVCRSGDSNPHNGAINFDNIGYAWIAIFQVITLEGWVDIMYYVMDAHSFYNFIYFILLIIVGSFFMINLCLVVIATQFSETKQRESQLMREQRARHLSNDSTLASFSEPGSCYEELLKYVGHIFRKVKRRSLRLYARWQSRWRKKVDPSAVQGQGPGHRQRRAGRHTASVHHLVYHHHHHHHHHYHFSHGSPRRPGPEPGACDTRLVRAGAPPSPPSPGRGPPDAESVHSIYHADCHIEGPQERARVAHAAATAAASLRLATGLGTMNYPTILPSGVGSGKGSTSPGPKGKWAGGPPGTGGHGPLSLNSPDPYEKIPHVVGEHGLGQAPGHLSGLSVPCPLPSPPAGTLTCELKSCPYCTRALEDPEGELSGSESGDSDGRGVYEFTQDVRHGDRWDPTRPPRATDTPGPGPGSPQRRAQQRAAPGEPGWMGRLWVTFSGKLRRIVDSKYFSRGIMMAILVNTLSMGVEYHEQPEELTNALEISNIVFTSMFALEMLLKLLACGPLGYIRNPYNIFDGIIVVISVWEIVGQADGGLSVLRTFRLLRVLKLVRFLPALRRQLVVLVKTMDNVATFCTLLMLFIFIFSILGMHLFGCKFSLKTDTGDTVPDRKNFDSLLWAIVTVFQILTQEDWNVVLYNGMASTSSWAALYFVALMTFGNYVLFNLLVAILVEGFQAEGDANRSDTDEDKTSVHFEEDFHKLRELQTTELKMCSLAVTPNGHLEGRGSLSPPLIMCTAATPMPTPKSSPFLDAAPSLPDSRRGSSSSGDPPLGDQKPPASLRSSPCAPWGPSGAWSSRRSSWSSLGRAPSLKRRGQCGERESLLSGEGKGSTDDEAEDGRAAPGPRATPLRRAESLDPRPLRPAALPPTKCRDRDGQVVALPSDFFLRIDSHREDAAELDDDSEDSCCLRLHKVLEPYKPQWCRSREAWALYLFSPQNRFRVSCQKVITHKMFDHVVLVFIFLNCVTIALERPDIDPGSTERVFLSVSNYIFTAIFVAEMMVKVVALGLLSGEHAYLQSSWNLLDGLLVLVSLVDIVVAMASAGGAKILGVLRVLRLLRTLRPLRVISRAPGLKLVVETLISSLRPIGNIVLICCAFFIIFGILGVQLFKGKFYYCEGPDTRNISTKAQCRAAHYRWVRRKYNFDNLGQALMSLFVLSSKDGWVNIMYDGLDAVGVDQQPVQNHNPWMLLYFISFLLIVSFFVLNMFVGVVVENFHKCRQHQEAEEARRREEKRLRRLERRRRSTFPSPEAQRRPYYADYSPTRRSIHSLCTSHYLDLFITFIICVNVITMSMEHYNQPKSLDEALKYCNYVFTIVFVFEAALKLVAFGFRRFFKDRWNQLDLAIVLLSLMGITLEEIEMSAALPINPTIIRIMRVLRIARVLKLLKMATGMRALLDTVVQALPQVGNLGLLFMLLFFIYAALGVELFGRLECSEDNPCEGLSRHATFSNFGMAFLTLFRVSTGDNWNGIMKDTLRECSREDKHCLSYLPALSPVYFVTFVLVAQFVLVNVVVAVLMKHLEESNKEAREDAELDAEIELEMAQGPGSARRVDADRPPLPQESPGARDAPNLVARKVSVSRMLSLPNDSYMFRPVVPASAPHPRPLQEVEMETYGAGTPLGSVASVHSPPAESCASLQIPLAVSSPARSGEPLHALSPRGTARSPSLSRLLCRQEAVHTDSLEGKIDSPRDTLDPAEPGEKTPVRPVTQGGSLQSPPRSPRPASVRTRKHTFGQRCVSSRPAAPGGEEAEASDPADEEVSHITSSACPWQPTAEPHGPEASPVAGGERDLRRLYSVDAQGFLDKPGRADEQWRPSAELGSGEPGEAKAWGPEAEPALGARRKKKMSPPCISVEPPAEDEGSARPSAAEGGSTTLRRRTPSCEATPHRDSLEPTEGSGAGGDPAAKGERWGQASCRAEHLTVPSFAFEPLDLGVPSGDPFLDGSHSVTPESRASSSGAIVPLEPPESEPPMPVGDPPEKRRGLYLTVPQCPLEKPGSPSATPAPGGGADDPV

[6] = general mammalian cell viability loss – inhibitor set, cherry-pick, set 2, cytotoxicity control for miR-122 modulator project, dose response (AID 720697); type: functional, cell-based
[7] = viability of PTEN-deleted HCT116 cells – cell-based, HCT116 PTEN knockout, dose response (AID 1047); type: functional;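 note: HCT116 colon tumor cells with PTEN knocked out; cells exposed to compound for 60 hours before readout; potency for loss of cell viability measured by luminescence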
[8] = viability of HCT116 lacking mutant beta-catenin – cell-based, human colon tumor, dose response (AID 1045); type: functional;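 note: HCT116 colon tumor cells with beta catenin knocked out; cells exposed to compound for 60 hours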
[9] = activation of miR-122 Renilla sensor silencing – cell-based, Huh7 psiCHECK-miR122, Renilla luciferase, cherry-picked, dose response (AID 651956); type: functional;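 note: huh7 hepatoma cells stably carrying a psiCHECK-2 miR-122 sensor plasmid; renilla luciferase signal reporting endogenous miR-122 activity after 48 h compound exposure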
[10] = Luminescence Cell-Based Dose Retest to Confirm Inhibitors of Cancer Stem Cells. [Related pubchem assays (depositor defined):AID2717, AID2721]; type: functional; conditions: Homo sapiens
Melanocortin receptor 4 = Melanocortin receptor 4 (Homo sapiens, UniProt P32245); type: functional, cell-based;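 note: Cell-based assay with luminescence read-out, confirmatory dose-response testing for agonist activity of biased ligands at MC4R; human U2OS cells with tagged receptor and beta-arrestin; potency of agonists that increase receptor coupling to beta-arrestin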
Sequence of Melanocortin receptor 4 (P32245 whole entry): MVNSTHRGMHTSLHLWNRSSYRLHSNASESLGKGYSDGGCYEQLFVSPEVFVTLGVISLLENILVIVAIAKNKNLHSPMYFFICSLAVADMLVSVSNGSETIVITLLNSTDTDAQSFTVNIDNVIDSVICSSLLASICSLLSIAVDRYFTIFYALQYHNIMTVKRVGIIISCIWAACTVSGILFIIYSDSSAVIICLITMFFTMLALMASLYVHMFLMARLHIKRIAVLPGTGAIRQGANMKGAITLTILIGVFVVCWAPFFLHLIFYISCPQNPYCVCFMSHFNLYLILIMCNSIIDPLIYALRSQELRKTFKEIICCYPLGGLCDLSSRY

[11] = target: T2, Ubiquitin-conjugating enzyme E2 N (Homo sapiens, UniProt P61088); type: functional;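 note: Dose-response confirmation in a TR-FRET assay detecting UBC13-driven polyubiquitin chain formation, inhibition measured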
T2 sequence (P61088 whole entry): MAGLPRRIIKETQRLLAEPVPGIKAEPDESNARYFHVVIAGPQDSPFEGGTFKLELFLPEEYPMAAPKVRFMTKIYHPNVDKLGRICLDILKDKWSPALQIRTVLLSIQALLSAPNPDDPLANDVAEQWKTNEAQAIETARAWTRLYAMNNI

[12] = target: T3, DNA repair protein RAD52 homolog (Homo sapiens, UniProt P43351); type: functional, biochemical
T3 sequence (P43351 whole entry): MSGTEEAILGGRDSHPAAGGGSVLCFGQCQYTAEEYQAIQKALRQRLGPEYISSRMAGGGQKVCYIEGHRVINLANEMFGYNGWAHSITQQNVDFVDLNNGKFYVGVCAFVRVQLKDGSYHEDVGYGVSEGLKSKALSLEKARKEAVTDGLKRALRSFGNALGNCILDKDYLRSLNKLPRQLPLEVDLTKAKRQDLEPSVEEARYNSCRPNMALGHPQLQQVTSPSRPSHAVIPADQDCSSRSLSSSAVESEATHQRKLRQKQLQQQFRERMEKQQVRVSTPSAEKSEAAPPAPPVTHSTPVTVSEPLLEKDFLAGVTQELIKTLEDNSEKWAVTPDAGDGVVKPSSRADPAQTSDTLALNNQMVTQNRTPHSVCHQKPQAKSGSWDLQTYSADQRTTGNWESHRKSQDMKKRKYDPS

[13] = A Cell Based Secondary Assay To Explore Cytotoxicity of Compounds that Sensitize Mycobacterium Tuberculosis to Beta-Lactam Antibiotics.; type: functional
[14] = target: T4, Mannose-6-phosphate isomerase (Homo sapiens, UniProt P34949); assay: MPI inhibition at elevated mannose 6-phosphate – biochemical, fluorescence intensity, high mannose 6-phosphate, primary screen (AID 1220)
T4 sequence (P34949 whole entry): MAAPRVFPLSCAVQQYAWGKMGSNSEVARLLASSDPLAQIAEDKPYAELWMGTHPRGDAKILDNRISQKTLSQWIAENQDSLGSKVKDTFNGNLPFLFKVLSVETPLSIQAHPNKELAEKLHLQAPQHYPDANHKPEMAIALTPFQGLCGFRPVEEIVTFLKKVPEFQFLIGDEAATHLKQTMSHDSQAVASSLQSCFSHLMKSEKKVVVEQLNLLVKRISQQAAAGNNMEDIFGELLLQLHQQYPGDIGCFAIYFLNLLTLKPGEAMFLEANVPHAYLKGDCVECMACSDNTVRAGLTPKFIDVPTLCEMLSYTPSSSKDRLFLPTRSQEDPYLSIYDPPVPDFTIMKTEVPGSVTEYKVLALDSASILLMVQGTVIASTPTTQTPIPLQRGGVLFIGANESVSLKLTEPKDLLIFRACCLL

Genome polyprotein = Genome polyprotein (dengue virus type 2, UniProt P29990); assay: flavivirus cap methylation enzyme inhibition – biochemical, confirmation dose response, primary screen (AID 588689); type: functional
Sequence of Genome polyprotein (P29990 2492-3391 limits assumed): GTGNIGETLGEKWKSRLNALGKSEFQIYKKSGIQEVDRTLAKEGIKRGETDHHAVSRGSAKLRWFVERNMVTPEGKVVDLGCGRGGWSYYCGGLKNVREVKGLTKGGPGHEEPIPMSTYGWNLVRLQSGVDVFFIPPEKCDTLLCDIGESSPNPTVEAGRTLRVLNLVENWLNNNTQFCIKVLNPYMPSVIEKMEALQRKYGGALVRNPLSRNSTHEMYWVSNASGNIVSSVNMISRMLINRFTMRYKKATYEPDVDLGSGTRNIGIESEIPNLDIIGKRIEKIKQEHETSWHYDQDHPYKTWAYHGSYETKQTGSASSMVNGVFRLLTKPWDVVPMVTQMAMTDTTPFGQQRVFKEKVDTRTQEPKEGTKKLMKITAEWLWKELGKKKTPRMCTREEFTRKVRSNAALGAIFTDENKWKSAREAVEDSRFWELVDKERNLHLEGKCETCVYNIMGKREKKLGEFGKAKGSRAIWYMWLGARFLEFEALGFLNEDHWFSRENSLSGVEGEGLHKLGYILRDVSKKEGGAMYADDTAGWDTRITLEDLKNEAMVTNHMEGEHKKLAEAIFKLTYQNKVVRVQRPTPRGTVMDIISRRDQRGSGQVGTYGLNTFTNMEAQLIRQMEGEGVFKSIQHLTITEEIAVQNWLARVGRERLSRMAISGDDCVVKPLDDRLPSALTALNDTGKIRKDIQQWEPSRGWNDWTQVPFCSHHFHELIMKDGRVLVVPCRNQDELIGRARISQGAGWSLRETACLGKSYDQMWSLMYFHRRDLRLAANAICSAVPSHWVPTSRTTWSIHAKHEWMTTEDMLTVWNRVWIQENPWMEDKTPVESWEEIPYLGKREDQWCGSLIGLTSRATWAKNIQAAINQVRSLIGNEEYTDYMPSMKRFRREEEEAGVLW

[15] = target: T5, Replicative DNA helicase DnaB (Mycobacterium tuberculosis, UniProt P9WMR3); assay: DnaB intein splicing inhibitors, dose response, biochemical, cell-free fluorescence (AID 449749); type: functional
T5 sequence (P9WMR3 whole entry): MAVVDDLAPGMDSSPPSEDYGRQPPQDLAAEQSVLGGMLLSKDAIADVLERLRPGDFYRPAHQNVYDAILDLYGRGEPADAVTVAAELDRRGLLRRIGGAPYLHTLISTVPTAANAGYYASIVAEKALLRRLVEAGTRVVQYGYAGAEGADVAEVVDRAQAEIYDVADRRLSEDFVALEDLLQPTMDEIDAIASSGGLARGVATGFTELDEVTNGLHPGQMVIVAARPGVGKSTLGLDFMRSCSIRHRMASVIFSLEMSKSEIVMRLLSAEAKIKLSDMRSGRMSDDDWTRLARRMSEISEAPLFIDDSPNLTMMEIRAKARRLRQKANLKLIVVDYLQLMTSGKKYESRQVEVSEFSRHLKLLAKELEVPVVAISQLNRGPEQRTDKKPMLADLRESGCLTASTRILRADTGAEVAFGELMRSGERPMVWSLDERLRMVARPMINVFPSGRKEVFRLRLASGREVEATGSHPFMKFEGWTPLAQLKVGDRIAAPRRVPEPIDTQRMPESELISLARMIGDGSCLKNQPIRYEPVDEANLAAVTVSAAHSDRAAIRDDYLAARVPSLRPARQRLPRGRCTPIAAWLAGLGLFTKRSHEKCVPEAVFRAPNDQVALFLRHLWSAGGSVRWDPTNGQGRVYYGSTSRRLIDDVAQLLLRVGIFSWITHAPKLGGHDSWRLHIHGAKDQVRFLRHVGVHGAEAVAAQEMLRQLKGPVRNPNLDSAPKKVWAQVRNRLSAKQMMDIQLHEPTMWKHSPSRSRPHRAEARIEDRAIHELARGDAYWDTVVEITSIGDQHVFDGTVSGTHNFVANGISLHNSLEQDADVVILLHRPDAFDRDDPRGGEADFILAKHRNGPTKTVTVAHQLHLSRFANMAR

[16] = target: T6, Tyrosyl-DNA phosphodiesterase 2 (Homo sapiens, UniProt O95551); assay: potency against TDP2 phosphodiesterase activity – biochemical, epi absorbance, IC50, dose response (AID 743297)
T6 sequence (O95551 whole entry): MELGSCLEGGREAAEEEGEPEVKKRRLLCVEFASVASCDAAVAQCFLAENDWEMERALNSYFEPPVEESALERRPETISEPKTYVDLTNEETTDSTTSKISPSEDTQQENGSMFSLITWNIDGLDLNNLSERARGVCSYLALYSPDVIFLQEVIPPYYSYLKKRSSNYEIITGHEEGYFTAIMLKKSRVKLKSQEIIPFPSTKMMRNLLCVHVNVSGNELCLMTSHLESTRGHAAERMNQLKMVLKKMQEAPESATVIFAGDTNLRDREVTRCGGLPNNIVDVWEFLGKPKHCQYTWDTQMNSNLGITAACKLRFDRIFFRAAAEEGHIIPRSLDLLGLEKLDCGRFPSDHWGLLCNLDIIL

Protein RecA = target: T7, Protein RecA (Mycobacterium tuberculosis, UniProt P9WHJ3); assay: Fluorescence Cell-Free Homogeneous Dose Retest to Identify Inhibitors of RecA-Intein Splicing Activity. [Related pubchem assays (depositor defined):AID2097, AID2223, AID489010, AID492950]; type: functional
T7 sequence (P9WHJ3 whole entry): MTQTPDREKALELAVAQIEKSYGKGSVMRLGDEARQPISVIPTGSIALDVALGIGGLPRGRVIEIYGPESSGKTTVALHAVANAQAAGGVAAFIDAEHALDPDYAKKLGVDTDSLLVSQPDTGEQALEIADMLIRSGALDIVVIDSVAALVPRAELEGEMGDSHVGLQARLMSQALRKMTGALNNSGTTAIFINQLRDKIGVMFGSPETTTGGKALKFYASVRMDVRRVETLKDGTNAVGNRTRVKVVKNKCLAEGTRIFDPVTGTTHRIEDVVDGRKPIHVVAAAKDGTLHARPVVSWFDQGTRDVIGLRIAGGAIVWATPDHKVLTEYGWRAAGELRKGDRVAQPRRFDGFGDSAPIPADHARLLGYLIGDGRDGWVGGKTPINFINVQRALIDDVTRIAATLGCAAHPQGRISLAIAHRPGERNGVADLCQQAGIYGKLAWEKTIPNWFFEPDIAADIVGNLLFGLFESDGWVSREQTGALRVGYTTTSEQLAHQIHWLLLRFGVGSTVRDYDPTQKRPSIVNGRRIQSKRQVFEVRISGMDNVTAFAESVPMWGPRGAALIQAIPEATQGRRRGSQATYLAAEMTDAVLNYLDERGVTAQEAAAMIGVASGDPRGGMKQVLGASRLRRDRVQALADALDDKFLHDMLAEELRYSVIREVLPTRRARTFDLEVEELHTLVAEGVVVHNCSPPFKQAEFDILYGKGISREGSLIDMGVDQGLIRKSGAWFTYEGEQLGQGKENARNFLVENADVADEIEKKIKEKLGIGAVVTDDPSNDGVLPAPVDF

[17] = target: T8, E3 ubiquitin-protein ligase XIAP (Homo sapiens, UniProt P98170); assay: Counter Screen using XIAP-Bir3 for Chemical Antagonists of Bir1/2 domains of IAP-family anti-apoptotic proteins. [Related pubchem assays (depositor defined):AID1018, AID1449, AID1514, AID1638, AID1749, AID1750, AID488957, AID488963]
T8 sequence (P98170 whole entry): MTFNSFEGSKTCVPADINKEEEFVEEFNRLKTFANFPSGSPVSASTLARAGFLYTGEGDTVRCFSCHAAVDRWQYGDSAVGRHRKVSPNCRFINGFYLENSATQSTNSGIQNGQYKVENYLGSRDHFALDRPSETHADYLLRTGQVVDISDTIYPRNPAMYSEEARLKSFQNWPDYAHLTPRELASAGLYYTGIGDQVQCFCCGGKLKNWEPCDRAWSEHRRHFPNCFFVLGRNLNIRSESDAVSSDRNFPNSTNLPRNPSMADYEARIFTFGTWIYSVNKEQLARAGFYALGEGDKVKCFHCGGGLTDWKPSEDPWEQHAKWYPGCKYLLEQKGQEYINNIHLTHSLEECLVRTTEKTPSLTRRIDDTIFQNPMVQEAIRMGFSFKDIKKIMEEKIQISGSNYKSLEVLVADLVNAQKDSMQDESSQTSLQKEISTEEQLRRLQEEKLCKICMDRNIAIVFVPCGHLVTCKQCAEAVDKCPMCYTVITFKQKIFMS

[18] = target: T8, E3 ubiquitin-protein ligase XIAP; assay: small molecules displacing peptide from XIAP – biochemical, IAP family, fluorescence polarization (AID 1018); type: functional
HEK293 = assay: EBV LMP1 TES2 canonical NF-kB signalling blockers – cell-based, HEK293, luciferase, cherry-pick, dose response (AID 588343); type: functional; conditions: Homo sapiens
[19] = target: Induced myeloid leukemia cell differentiation protein Mcl-1 (Homo sapiens, UniProt Q07820); type: functional
Sequence of Induced myeloid leukemia cell differentiation protein Mcl-1 (Q07820 whole entry): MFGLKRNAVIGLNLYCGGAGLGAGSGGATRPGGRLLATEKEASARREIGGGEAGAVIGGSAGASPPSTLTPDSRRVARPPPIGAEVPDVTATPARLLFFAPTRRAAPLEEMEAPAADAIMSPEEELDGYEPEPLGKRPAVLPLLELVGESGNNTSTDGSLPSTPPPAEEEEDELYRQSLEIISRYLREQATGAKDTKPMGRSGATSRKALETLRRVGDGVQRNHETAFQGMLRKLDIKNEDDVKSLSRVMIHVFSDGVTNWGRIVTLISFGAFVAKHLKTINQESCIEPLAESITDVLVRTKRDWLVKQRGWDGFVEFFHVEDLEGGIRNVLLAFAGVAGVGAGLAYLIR

## CC(=O)Nc1ccc(N2C(=O)CC(Sc3nc4ccccc4s3)C2=O)cc1 (centres undefined)
[1]
  EC50: > 67.5 µM (inactive)
[2]
  IC50: > 67.5 µM (inactive)

## CCC1C/C(=C/c2ccco2)C(=O)/C(=C/c2ccco2)C1 (centres undefined)
[3]
  CC50: > 40 µM (active)

## COc1ccccc1-c1ccc2c(c1)O[C@@H](CN(C)S(=O)(=O)c1ccc(F)cc1)[C@@H](C)CN([C@@H](C)CO)S2(=O)=O
[4]
  AC50: 42.4 µM (active)

## Cc1ccc(OCC(O)Cn2c(=N)n(Cc3ccccc3)c3ccccc32)cc1 (centres undefined)
[5]
  EC50: 4.11 µM (active)
[6]
  AC50: 7.65 µM (active)
[7]
  EC50: 4.53 µM (active)
[4]
  AC50: 14.4 µM (active)
[8]
  EC50: 4.31 µM (active)

## CCCCCCOc1ccc(/C(C)=N/NC2=NCCN2)cc1
[9]
  AC50: 22.2 µM (active)
[6]
  AC50: 16 µM (active)
[10]
  AC50: 3.05 µM (active)
Melanocortin receptor 4
  EC50: > 89.1 µM (inactive)
[4]
  AC50: 16.3 µM (active)
[11]
  IC50: > 20 µM (inactive)
[12]
  AC50: 23 µM (active)

## CCN(Cc1ccccc1)Cc1nnnn1Cc1ccccc1
[3]
  CC50: > 40 µM (active)

## CC(C)(C)OC(=O)N1CCC(NC(=O)c2[nH]cnc2C(=O)Nc2ccccc2)CC1
[13]
  CC50: > 40 µM (active)

## Oc1ccc2ccccc2c1/C=N\C12CN3CCN(CN(C3)C1)C2
[14]
  IC50: 27.6 µM (active)
Genome polyprotein
  IC50: 53.9 µM (active)

## c1ccc(-c2ncc3c(ccc4ccccc43)n2)cc1
[1]
  EC50: > 67.6 µM (inactive)
[2]
  IC50: > 67.6 µM (inactive)

## COc1cc(/C=C2/C(=O)N(c3ccc([N+](=O)[O-])cc3)N=C2N2CCOCC2)ccc1O
[15]
  AC50: 19.7 µM (active)
[16]
  IC50: > 128 µM (inactive)
Protein RecA
  EC50: 6.68 µM (active)

## COc1ccc(-n2c(SCC(=O)Nc3cc(C)on3)nc3c(c2=O)SCC3)cc1
[17]
  IC50: > 100 µM (inactive)
[18]
  IC50: > 100 µM (not active)
HEK293
  AC50: 98.6 µM (active)

## CCN1C(=O)c2ccccc2[S+]([O-])c2ccc(C(=O)N3CCCCCC3)cc21 (centres undefined)
[17]
  IC50: > 100 µM (inactive)
[18]
  IC50: > 100 µM (not active)

## O=C(NCc1cccs1)C1CC(c2ccccc2O)=NO1 (centres undefined)
[17]
  IC50: > 100 µM (inactive)
[18]
  IC50: > 100 µM (not active)

## Cc1c(C(=O)N/N=C/c2ccc(-c3ccccc3[N+](=O)[O-])o2)sc(N)c1C#N
[14]
  IC50: > 50 µM (not active)
[19]
  IC50: 3.78 µM (active)
